Source: the supplement of paper PMC10307832

How the values were obtained:
Assay in all cases: relative viability (nuclei count vs DMSO), 5 days (fraction); higher = more cells survive
RERF-LC-KJ = test system: RERF-LC-KJ
Procedure, shortened: (§1)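 Values are medians from duplicate plates. Each reflects relative viability, defined as the nuclei count of treated wells over that of vehicle wells. Lung cancer cell lines in 1536-well plates were pin-tool dosed one day after seeding with one drug alone or with a fixed anchor-drug dose plus five library-drug doses (not always all listed) in √10 steps, then fixed, stained and imaged at 4× after 5 days.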

NCI-H2126 = test system: NCI-H2126
Procedure, shortened: as §1

NCI-H1666 = test system: NCI-H1666
Procedure, shortened: as §1

COR-L 105 = test system: COR-L 105
Procedure, shortened: as §1

NCI-H520 = test system: NCI-H520
Procedure, shortened: as §1

NCI-H522 = test system: NCI-H522
Procedure, shortened: as §1

NCI-H661 = test system: NCI-H661
Procedure, shortened: as §1

ChaGo-K-1 = test system: ChaGo-K-1
Procedure, shortened: as §1

NCI-H23 = test system: NCI-H23
Procedure, shortened: as §1

NCI-H650 = test system: NCI-H650
Procedure, shortened: as §1

NCI-H647 = test system: NCI-H647
Procedure, shortened: as §1

NCI-H2347 = test system: NCI-H2347
Procedure, shortened: as §1

NCI-H1915 = test system: NCI-H1915
Procedure, shortened: as §1

PC-14 = test system: PC-14
Procedure, shortened: as §1

LC-2-ad = test system: LC-2-ad
Procedure, shortened: as §1

HCC-78 = test system: HCC-78
Procedure, shortened: as §1

201T = test system: 201T
Procedure, shortened: as §1

EPLC-272H = test system: EPLC-272H
Procedure, shortened: as §1

LCLC-97TM1 = test system: LCLC-97TM1
Procedure, shortened: as §1

NCI-H2405 = test system: NCI-H2405
Procedure, shortened: as §1

HCC-827 = test system: HCC-827
Procedure, shortened: as §1

NCI-H2087 = test system: NCI-H2087
Procedure, shortened: as §1

NCI-H322M = test system: NCI-H322M
Procedure, shortened: as §1

H3255 = test system: H3255
Procedure, shortened: as §1

`CC(C)Oc1cc(Nc2nc(N[C@@H](C)c3ccc(F)cn3)ncc2Cl)n[nH]1` [AZ23] + O=C(CCCCCCC(=O)Nc1ccccc1)NO [Vorinostat] (partner 1 µM) gave a relative viability (RERF-LC-KJ; first compound 0.01 µM) of 0.711, a relative viability (RERF-LC-KJ; first compound 0.03162 µM) of 0.704 and a relative viability (RERF-LC-KJ; first compound 0.3162 µM) of 0.675. The relative viability (NCI-H2126; first compound 0.01 µM) was 0.776, the relative viability (NCI-H2126; first compound 0.03162 µM) was 0.873 and the relative viability (NCI-H2126; first compound 0.3162 µM) was 0.616. The relative viability (NCI-H1666; first compound 0.01 µM) was 0.859, the relative viability (NCI-H1666; first compound 0.03162 µM) was 0.977 and the relative viability (NCI-H1666; first compound 0.3162 µM) was 1.03. It also gave a relative viability (COR-L 105; first compound 0.01 µM) of 0.698, a relative viability (COR-L 105; first compound 0.03162 µM) of 0.799 and a relative viability (COR-L 105; first compound 0.3162 µM) of 0.841. For the same compound, the relative viability (NCI-H520; first compound 0.01 µM) was 0.794, the relative viability (NCI-H520; first compound 0.03162 µM) was 0.754 and the relative viability (NCI-H520; first compound 0.3162 µM) was 0.609. The relative viability (NCI-H522; first compound 0.01 µM) was 0.939, the relative viability (NCI-H522; first compound 0.03162 µM) was 0.954 and the relative viability (NCI-H522; first compound 0.3162 µM) was 0.934. For the same compound, the relative viability (NCI-H661; first compound 0.01 µM) was 0.814, the relative viability (NCI-H661; first compound 0.03162 µM) was 0.769 and the relative viability (NCI-H661; first compound 0.3162 µM) was 0.87. The relative viability (ChaGo-K-1; first compound 0.01 µM) was 0.936, the relative viability (ChaGo-K-1; first compound 0.03162 µM) was 0.798 and the relative viability (ChaGo-K-1; first compound 0.3162 µM) was 0.82. It also gave a relative viability (NCI-H23; first compound 0.03162 µM) of 0.62, a relative viability (NCI-H23; first compound 0.3162 µM) of 0.719 and a relative viability (NCI-H650; first compound 0.01 µM) of 0.411. For the same compound, the relative viability (NCI-H650; first compound 0.03162 µM) was 0.583, the relative viability (NCI-H650; first compound 0.3162 µM) was 0.452 and the relative viability (NCI-H647; first compound 0.01 µM) was 0.935. It also gave a relative viability (NCI-H647; first compound 0.03162 µM) of 0.497, a relative viability (NCI-H647; first compound 0.3162 µM) of 0.591 and a relative viability (NCI-H2347; first compound 0.01 µM) of 0.446. For the same compound, the relative viability (NCI-H2347; first compound 0.03162 µM) was 0.631, the relative viability (NCI-H2347; first compound 0.3162 µM) was 0.587 and the relative viability (NCI-H1915; first compound 0.01 µM) was 0.575. For the same compound, the relative viability (NCI-H1915; first compound 0.03162 µM) was 0.526, the relative viability (NCI-H1915; first compound 0.3162 µM) was 0.58 and the relative viability (PC-14; first compound 0.01 µM) was 0.284. It also gave a relative viability (PC-14; first compound 0.03162 µM) of 0.874, a relative viability (PC-14; first compound 0.3162 µM) of 0.905 and a relative viability (LC-2-ad; first compound 0.01 µM) of 0.86. For the same compound, the relative viability (LC-2-ad; first compound 0.03162 µM) was 0.789, the relative viability (LC-2-ad; first compound 0.3162 µM) was 0.716 and the relative viability (HCC-78; first compound 0.01 µM) was 0.432. The relative viability (HCC-78; first compound 0.03162 µM) was 0.401, the relative viability (HCC-78; first compound 0.3162 µM) was 0.341 and the relative viability (201T; first compound 0.01 µM) was 1.05. For the same compound, the relative viability (201T; first compound 0.03162 µM) was 1.09, the relative viability (201T; first compound 0.3162 µM) was 1.08 and the relative viability (EPLC-272H; first compound 0.03162 µM) was 0.543. For the same compound, the relative viability (EPLC-272H; first compound 0.3162 µM) was 0.423, the relative viability (LCLC-97TM1; first compound 0.01 µM) was 0.582 and the relative viability (LCLC-97TM1; first compound 0.03162 µM) was 0.885. It also gave a relative viability (LCLC-97TM1; first compound 0.3162 µM) of 0.396, a relative viability (NCI-H2405; first compound 0.01 µM) of 0.922 and a relative viability (NCI-H2405; first compound 0.03162 µM) of 1.13. It also gave a relative viability (NCI-H2405; first compound 0.3162 µM) of 1.01, a relative viability (HCC-827; first compound 0.01 µM) of 0.964 and a relative viability (HCC-827; first compound 0.03162 µM) of 0.866. It also gave a relative viability (HCC-827; first compound 0.3162 µM) of 0.9, a relative viability (NCI-H2087; first compound 0.01 µM) of 0.969 and a relative viability (NCI-H2087; first compound 0.03162 µM) of 0.995. It also gave a relative viability (NCI-H2087; first compound 0.3162 µM) of 0.668, a relative viability (NCI-H322M; first compound 0.01 µM) of 0.674 and a relative viability (NCI-H322M; first compound 0.03162 µM) of 0.881. The relative viability (NCI-H322M; first compound 0.3162 µM) was 0.93, the relative viability (H3255; first compound 0.01 µM) was 0.737 and the relative viability (H3255; first compound 0.03162 µM) was 0.791. The relative viability (H3255; first compound 0.3162 µM) was 0.867.
